In US7655804B2, “Diketohydrazine derivative compounds and drugs containing the compounds as the active ingredient” (Ono Pharmaceutical Co., Ltd., priority 2002, dated 2010):

Molecular target: T1, cathepsin K (Homo sapiens, UniProt P43235)
T1 sequence (P43235 115-329): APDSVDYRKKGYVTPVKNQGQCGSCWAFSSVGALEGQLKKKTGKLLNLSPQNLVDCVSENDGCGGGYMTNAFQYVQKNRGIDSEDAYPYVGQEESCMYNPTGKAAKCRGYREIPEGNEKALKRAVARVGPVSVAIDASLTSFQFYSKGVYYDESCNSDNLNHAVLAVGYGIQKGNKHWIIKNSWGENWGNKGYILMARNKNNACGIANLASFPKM
Test: Measurement of cathepsin K inhibitory activity
Type: biochemical
Conditions: Dixon plot, 37° C., pH 5.5
Method: 65 μL of cathepsin K enzyme reaction buffer (50 mmol/L of 2-(N-morpholino)ethanesulfonate, 2 mmol/L of ethylenediaminetetraacetate (EDTA) and 4 mmol/L of dithiothreitol (DTT) were mixed to adjust to pH 5.5), 5 μL of cysteine protease inhibitor solution of several concentrations, 20 μL of synthesized substrate (t-butyloxycarbonyl-L-alanyl-glycyl-L-prolyl-L-arginine-4-methyl-chromanyl-7-amide) solution of several concentrations and 10 μL of cathepsin K enzyme solution were mixed and the increase of fluorescence intensity when reacted at 37° C. was measured (λex (excitation wavelength)=355 nm, λem (fluorescence wavelength)=460 nm). As to the substrate and the compound of the present invention, enzyme reactions were carried out in combination of several appropriate concentrations and Dixon plotting was prepared, to define the absolute value of X-coordinate of the intersection point of the graph as Ki value.

Ki [nM] | SMILES
14 | CC(C)(C)CC(NC(=O)C1CCCCCC1)C(=O)C(=O)NN1CCCS1(=O)=O (stereo not drawn) [2(6)]
4 | CC(C)(C)CC(NC(=O)C1CCCCC1)C(=O)C(=O)NN1C(=O)CCC1=O (stereo not drawn) [example 5]
2.5 | CC(C)C[C@H](NC(=O)C1CCCCC1)C(=O)C(=O)NN=C1SCCN1C [8(1)]
